The subject of data set [1] is constitutively activated ALK1-5. Description: Cell-based luciferase reporter assays with constitutively activated ALK1-5, potency comparison. The following applies: ALK1-5, BRE-Luc / CAGA-Luc. From the text:
[…]. Inhibition curves of BMP and TGF-β transcriptional activity mediated by constitutively activated ALK1-5 in a cell-based luciferase reporter assays. […]. Data shown are representative of more than 3 independent experiments, with data plotted as mean±S.E.M. (n=3 replicates)
C2C12 myofibroblast cells stably expressing firefly luciferase under the control of BMP-responsive promoter element (BRE-Luc) were generously provided by Dr. Peter ten Dijke (Leiden University Medical Center, NL). Human embryonic kidney 293T cells stably transfected with the TGF-β-responsive element fused to luciferase gene (CAGA-Luc) were a kind gift of Dr. Howard Weiner (Brigham and Women's Hospital, Boston, Mass.). C2C12 Bre-Luc and 293T CAGA-Luc cells were seeded at 20,000 cells in DMEM supplemented with 2% FBS per well in tissue culture treated 96-well plates (Costar® 3610; Corning). The cells were incubated for 1 h (37° C. and 10% CO2) and allowed to settle and attach. […]. Cells were then incubated for 30 min. […] Media was discarded and firefly luciferase activity was measured (Promega™) according to manufacturer's protocol. Light output was measured using a Spectramax™ L luminometer (Molecular Devices™) with an integration time of one second per well. […]
A general note: A reporter such as luciferase makes a cellular process visible.

For data set [2] the following is noted: 60 mg to 250 mg p.o. per day; cited from earlier work.
Data set [3] relates to ACVR1^[R206H]FlEx/+] knock-in mice. Description: ACVR1^[R206H]FlEx/+] knock-in mouse model of FOP. How it is done:
Mice were maintained in accordance with Institutional Animal Care and Use Committee guidelines under approved experimental protocols. […] Heterotopic bone formation in these mice was introduced via single retro-popliteal injection of adenoviral Cre-recombinase at 1×10^8 PFU at postnatal day 7 (P7). […] Bone formation as a function of a loss of passive range of motion, via dorsiflexion of the left ankle joint was assessed daily. […] On day 35 for inducible ACVR1^Q207D mice, and on day 90-120 for inducible ACVR1^R206H mice were sacrificed and imaged via X-ray radiography (MS FX In-Vivo Pro: Carestream Health). Micro-computed tomography (micro-CT) imaging was carried out on samples fixed overnight in 1% paraformaldehyde followed by scanning (μCT35, ScanCo).

The target of another data set is T1, ALK4/ACVR1B (Homo sapiens, UniProt P36896).
T1 sequence (P36896 1-505 T206D): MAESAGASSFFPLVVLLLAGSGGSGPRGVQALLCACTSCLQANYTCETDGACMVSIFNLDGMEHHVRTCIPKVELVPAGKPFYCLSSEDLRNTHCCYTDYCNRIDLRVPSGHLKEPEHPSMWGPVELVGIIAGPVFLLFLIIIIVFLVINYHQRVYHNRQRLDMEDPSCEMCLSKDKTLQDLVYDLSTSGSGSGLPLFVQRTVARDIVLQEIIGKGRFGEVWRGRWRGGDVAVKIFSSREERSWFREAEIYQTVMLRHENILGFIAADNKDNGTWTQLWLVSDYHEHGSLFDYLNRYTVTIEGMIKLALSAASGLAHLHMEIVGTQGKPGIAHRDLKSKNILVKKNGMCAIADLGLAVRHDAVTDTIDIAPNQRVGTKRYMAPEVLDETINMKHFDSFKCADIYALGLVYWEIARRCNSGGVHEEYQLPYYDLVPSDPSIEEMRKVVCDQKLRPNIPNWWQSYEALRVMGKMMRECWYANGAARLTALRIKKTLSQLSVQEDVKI
Description: CAGA-Luc luciferase reporter in HEK293 cells driven by constitutively active ALK4. The class given is cell-based. As to conditions: Ad.caALK4, read-out: IC50 inhibition of caALK4 activity (CAGA-Luc). The method, then:
(§1) Inhibition of BMP-mediated gene transcription was measured via the activity of a BMP-response element luciferase reporter (BRE-Luc) stably expressed in the C2C12 cell line as a measure of BMP signaling inhibition, with gene expression being driven by constitutively active (ca-) forms of BMP type I receptors ALK1, ALK2, and ALK3 (FIG. 1). This was measured in comparison to the inhibition of TGF-β or Activin signaling via CAGA-Luc reporter construct stably expressed in HEK293 cells, with gene expression being driven by constitutively active (ca-) forms of Activin/TGF=β type I receptors ALK4 or ALK5 (FIG. 1). […]. C2C12 myofibroblast cells stably expressing firefly luciferase under the control of BMP-responsive promoter element (BRE-Luc) were generously provided by Dr. Peter ten Dijke (Leiden University Medical Center, NL). Human embryonic kidney 293T cells stably transfected with the TGF-β-responsive element fused to luciferase gene (CAGA-Luc) were a kind gift of Dr. Howard Weiner (Brigham and Women's Hospital, Boston, Mass.). […] Media was discarded and firefly luciferase activity was measured (Promega™) according to manufacturer's protocol. Light output was measured using a Spectramax™ L luminometer (Molecular Devices™) with an integration time of one second per well. […]

The next data set has as its target T2, ALK5/TGFBR1 (Homo sapiens, UniProt P36897, T204D).
T2 construct: expressed in transfected cells; host or cells: 293T CAGA-Luc cells infected with Ad.caALK5 (gift of Dr. Akiko Hata)
T2 sequence (P36897 34-503 T204D): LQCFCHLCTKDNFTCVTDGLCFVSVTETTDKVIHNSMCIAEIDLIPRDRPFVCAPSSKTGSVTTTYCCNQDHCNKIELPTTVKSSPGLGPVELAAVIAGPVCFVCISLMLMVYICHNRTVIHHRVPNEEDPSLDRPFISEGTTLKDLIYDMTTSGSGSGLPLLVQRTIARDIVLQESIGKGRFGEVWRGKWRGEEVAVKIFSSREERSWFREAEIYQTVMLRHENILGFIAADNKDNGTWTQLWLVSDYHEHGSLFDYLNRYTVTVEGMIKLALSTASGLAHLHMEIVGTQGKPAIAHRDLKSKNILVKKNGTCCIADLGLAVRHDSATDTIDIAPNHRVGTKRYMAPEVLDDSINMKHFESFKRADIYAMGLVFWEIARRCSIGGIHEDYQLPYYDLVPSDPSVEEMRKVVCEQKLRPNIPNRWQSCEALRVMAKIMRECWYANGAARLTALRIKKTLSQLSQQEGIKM
Nature of the data set: CAGA-Luc luciferase reporter in HEK293 cells driven by constitutively active ALK5. Format: cell-based. As to conditions: Ad.caALK5, read-out: IC50 inhibition of caALK5 activity (CAGA-Luc). How it is done: as §1

Data set [4] concerns ACVR1^Q207D (CAG-Z-EGFP-caALK2) transgenic mice. Description: Inducible ACVR1^Q207D-Tg (CAG-Z-EGFP-caALK2) mouse model of heterotopic ossification / FOP. As to conditions: for heterotopic bone lesions on x-ray: 6 mg/kg i.p. twice daily; for passive range-of-motion: 6 mg/kg intraperitoneally twice daily.
Where [5] appears, read: 25 mg/kg oral gavage daily for first 28 days only, observed up to 90 days.
[6] abbreviates: 25 mg/kg intraperitoneally twice daily for 28 days.

The structures appear in SMILES notation. Entries after “also recorded” stand apart in the source; their conditions may differ.

Take `CN1CCN(CCOc2cc(OC3CCOCC3)c3c(Nc4c(Cl)ccc5c4OCO5)ncnc3c2)CC1` [AZD-0530, N-(5-chloro-1,3-benzodioxol-4-yl)-7-[2-(4-methylpiperazin-1-yl)ethoxy]-5-[(tetrahydro-2H-pyran-4-yl)oxy]quinazolin-4-amine]: the “decreased potency against all receptors compared with LDN-193189” value in data set [1] is reported as “approximately 10 fold”. Moreover, the “tolerability in healthy human adults” value in data set [2] is recorded as “good tolerability”. The “change in weight compared to vehicle treated controls” value in data set [3] (25 mg/kg oral gavage daily for 28 days) is listed as “No statistically significant change”. Besides, the “progressive loss of range of motion” value in data set [3] (setting [5]) is recorded as “protected”. Further, in data set [3] (setting [5]), the radiographic bone formation entry is on record as “protected”. For the same compound, the IC50 on ALK4/ACVR1B and at ALK5/TGFBR1 was 220 nM each time.

Regarding `c1ccc2c(-c3cnn4cc(-c5ccc(N6CCNCC6)cc5)cnc34)ccnc2c1` [LDN-193189], in data set [4], the “heterotopic bone lesions on x-ray” value is on record as “preventing heterotopic bone lesions” and the passive range-of-motion result was “effective in preserving range of motion; also recorded: mobility was almost entirely preserved”.

In the case of `c1cc(-c2cnn3cc(-c4ccc(N5CCNCC5)cc4)cnc23)c2cccnc2c1` [LDN-212854], in data set [4], the “heterotopic bone lesions on x-ray” value was “preventing heterotopic bone lesions” and the passive range-of-motion entry is reported as “effective in preserving range of motion; also recorded: mobility was almost entirely preserved”.

As to `COc1cc2c(Nc3ccc(Br)cc3F)ncnc2cc1OCC1CCN(C)CC1` [ZD-6474], in data set [4] (setting [6]), the radiographic heterotopic ossification result is “did not significantly attenuate; also recorded: no evidence of improvement” and the range-of motion result is reported as “no evidence of improvement”.

The IC50 is the point on the concentration scale where inhibition reaches its midpoint.

The values are drawn from US10583143B2, “Methods and compositions for the treatment or prevention of abnormal bone formation in a soft tissue” (THE BRIGHAM AND WOMEN'S HOSPITAL, INC., priority 2015, dated 2020).
